17 compounds from patent US20250215029A1 (Recludix Pharma, Inc., priority 2022, published 2025) can be followed below.

Like-named read-outs stand apart in the source and are kept apart here.

Experiment [1] has as its target T1, Recombinant STAT3 protein (STAT3 (G127-I722)) (Homo sapiens, UniProt P40763).
T1 construct: Recombinant STAT3 protein (STAT3 (G127-I722))
In words: STAT3 Fluorescence Polarization (FP) Assay. It is filed as binding. Particulars: probe 5-FAM-GpYLPQTV-NH2 2 nM, 45-minute incubation. The method in brief: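 Displacement of a 2 nM 5-FAM-labelled pY peptide (GpYLPQTV) from 25 nM recombinant STAT3 (G127-I722) was monitored by fluorescence polarization. Incubation lasted 45 min at room temperature in pH 7.4 HEPES buffer containing 1% DMSO.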
In general terms: Polarisation of emitted light reports the rotation of a fluorescent probe.

Experiment [2] concerns the target T2, Recombinant STAT6 protein (STAT6 (W123-T658)) (Homo sapiens, UniProt P42226).
T2 construct: Recombinant STAT6 protein (STAT6 (W123-T658))
T2 sequence (P42226 123-658): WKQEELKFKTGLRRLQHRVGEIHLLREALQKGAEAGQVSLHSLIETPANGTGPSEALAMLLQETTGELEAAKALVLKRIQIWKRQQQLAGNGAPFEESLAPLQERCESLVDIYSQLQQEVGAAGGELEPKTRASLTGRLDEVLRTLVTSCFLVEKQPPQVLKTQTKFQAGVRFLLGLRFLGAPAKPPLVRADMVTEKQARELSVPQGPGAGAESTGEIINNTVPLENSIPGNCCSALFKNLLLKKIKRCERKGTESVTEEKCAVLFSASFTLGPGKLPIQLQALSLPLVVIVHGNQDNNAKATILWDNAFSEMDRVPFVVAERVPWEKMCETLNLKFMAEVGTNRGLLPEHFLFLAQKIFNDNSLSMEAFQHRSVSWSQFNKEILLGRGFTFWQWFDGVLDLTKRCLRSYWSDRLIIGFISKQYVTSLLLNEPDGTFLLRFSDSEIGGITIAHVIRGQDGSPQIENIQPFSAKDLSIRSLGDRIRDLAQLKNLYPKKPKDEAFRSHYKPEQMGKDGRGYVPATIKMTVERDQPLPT
As to the kind of experiment: STAT6 Fluorescence Polarization (FP) Assay. It is filed as binding. Particulars: probe 5-FAM-Ap[…]-NH2 2 nM, 45-minute incubation. The essentials:
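Displacement of a fluorescent phosphotyrosine peptide (2 nM) from 250 nM STAT6 (W123-T658) is measured by polarization after a 45-minute room-temperature incubation. Compounds are titrated serially at 1% DMSO, and IC50 values derive from regression of mP on log concentration.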

The mark [3] stands for this setting: STAT3 (G127-I722) 25 nM, read-out: STAT3 (FP assay IC50 class).
The mark [4] stands for this setting: STAT6 (W123-T658) 250 nM, read-out: STAT6 (FP assay IC50 class).
[5] abbreviates: STAT3 25 nM, read-out: STAT3 (FP assay IC50).
Setting [6] is: STAT6 250 nM, read-out: STAT6 (FP assay IC50).

T1 sequence (P40763 127-722): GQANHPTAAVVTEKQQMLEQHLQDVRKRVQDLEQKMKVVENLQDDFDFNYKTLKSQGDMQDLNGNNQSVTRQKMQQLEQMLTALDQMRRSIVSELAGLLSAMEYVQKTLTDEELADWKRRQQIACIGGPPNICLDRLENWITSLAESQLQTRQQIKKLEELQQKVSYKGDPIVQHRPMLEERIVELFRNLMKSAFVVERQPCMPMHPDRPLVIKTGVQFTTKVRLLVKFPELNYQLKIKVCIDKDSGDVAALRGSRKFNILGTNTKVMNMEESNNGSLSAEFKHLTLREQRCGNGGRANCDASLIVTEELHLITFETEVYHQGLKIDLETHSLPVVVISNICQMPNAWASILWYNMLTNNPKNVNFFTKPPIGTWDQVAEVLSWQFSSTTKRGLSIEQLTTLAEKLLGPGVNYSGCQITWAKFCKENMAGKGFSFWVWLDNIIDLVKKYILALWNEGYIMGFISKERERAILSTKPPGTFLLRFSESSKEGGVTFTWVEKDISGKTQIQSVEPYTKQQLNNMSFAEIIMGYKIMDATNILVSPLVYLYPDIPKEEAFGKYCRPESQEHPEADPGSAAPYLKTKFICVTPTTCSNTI

In general, IC50 refers to the concentration needed to halve the response being measured. For the compound `Cn1ncc(C2CN(C(=O)[C@@H]3CC[C@@H]4CCC[C@H](NC(=O)c5cc6cc(C(F)P(=O)(O)O)ccc6s5)C(=O)N43)C2)c1O` (stereo partly drawn) [Compound 607, (fluoro(2-(((3S,6S,9aS)-3-(3-(5-hydroxy-1-methyl-1H-pyrazol-4-yl)azetidine-1-carbonyl)-5-oxooctahydro-1H-pyrrolo[1,2-a]azepin-6-yl)carbamoyl)benzo [b]thiophen-5-yl)methyl) phosphonic acid], the IC50 in experiment [1] (setting [3]) was < 100 nM; in experiment [2] (setting [4]), 0.3 to 3 µM.
Consider `Cc1c(C#N)cncc1C1CN(C(=O)[C@@H]2CC[C@@H]3CCC[C@H](NC(=O)c4cc5cc(CP(=O)(O)O)ccc5s4)C(=O)N32)C1` [Compound 510, ((2-(((3S,6S,9aS)-3-(3-(5-cyano-4-methylpyridin-3-yl)azetidine-1-carbonyl)-5-oxooctahydro-1H-pyrrolo[1,2-a]azepin-6-yl)carbamoyl)benzo[b]thiophen-5-yl)methyl)phosphonic acid], for which the IC50 is 1000 to 10000 nM in experiment [1] (setting [3]) and 3 to 30 µM in experiment [2] (setting [4]).
Consider `O=C(N[C@H]1CCC[C@H]2CC[C@@H](C(=O)N3C(=O)N(c4cccnc4)C(=O)C34CC4)N2C1=O)c1cc2cc([C@H](F)P(=O)(O)O)ccc2s1` [Compound 915, ((R)-(2-(((3S,6S,9aS)-3-(5,7-dioxo-6-(pyridin-3-yl)-4,6-diazaspiro[2.4]heptane-4-carbonyl)-5-oxooctahydro-1H-pyrrolo[1,2-a]azepin-6-yl)carbamoyl)benzo [b]thiophen-5-yl)fluoromethyl) phosphonic acid], for which the figures for the IC50 in experiment [1] (setting [3]) and in experiment [2] (setting [4]) were 1000 to 10000 nM and ≤ 0.3 µM, respectively.
Consider `COc1cc(F)c(C2CN(C(=O)[C@@H]3CC[C@@H]4CCC[C@H](NC(=O)c5cc6cc(CP(=O)(O)O)ccc6s5)C(=O)N43)C2)cn1` [Compound 556, ((2-(((3S,6S,9aS)-3-(3-(4-fluoro-6-methoxypyridin-3-yl)azetidine-1-carbonyl)-5-oxooctahydro-1H-pyrrolo[1,2-a]azepin-6-yl)carbamoyl)benzo[b]thiophen-5-yl)methyl)phosphonic acid], for which the IC50 in experiment [1] (setting [3]) lay within 1000 to 10000 nM; in experiment [2] (setting [4]), 3 to 30 µM.
On the same counts, the results for `N#Cc1ccnc(C2CN(C(=O)[C@@H]3CC[C@@H]4CCC[C@H](NC(=O)c5cc6cc(C(F)(F)P(=O)(O)O)ccc6s5)C(=O)N43)C2)n1` [Compound 824, ((2-(((3S,6S,9aS)-3-(3-(4-cyanopyrimidin-2-yl)azetidine-1-carbonyl)-5-oxooctahydro-1H-pyrrolo[1,2-a]azepin-6-yl)carbamoyl)benzo [b]thiophen-5-yl)difluoromethyl) phosphonic acid] are < 100 nM and 0.3 to 3 µM.
With `O=C(N[C@H]1CCC[C@H]2CC[C@@H](C(=O)N3CC(C(=O)N4CCOCC4)C3)N2C1=O)c1cc2cc(C(F)(F)P(=O)(O)O)ccc2s1` [Compound 94, (difluoro(2-(((3S,6S,9aS)-3-(3-(morpholine-4-carbonyl)azetidine-1-carbonyl)-5-oxooctahydro-1H-pyrrolo[1,2-a]azepin-6-yl)carbamoyl)benzo[b]thiophen-5-yl)methyl) phosphonic acid], the IC50 lay within 100 to 1000 nM in experiment [1] (setting [5]) and 3 to 30 µM in experiment [2] (setting [6]).
Regarding `O=C(N[C@H]1CC[C@@H](O)C[C@H]2CC[C@@H](C(=O)N3CC(C(=O)N4CCOCC4)C3)N2C1=O)c1cc2cc(C(F)(F)P(=O)(O)O)ccc2s1` [Compound 2, (difluoro(2-(((3S,6S,9R,10aR)-9-hydroxy-3-(3-(morpholine-4-carbonyl)azetidine-1-carbonyl)-5-oxodecahydropyrrolo [1,2-a]azocin-6-yl)carbamoyl)benzo[b]thiophen-5-yl)methyl) phosphonic acid], the IC50 in experiment [1] (setting [5]) was in the range of 100 to 1000 nM; in experiment [2] (setting [6]) it was 3 to 30 µM.
For the compound `O=C(N[C@H]1CCC[C@H]2CC[C@@H](C(=O)N3CC(n4ccc(=O)nc4)C3)N2C1=O)c1cc2cc(C(F)P(=O)(O)O)ccc2s1` (stereo partly drawn) [Compound 620, (fluoro(2-(((3S,6S,9aS)-5-oxo-3-(3-(4-oxopyrimidin-1(4H)-yl)azetidine-1-carbonyl)octahydro-1H-pyrrolo[1,2-a]azepin-6-yl)carbamoyl)benzo [b]thiophen-5-yl)methyl) phosphonic acid], the IC50 in experiment [1] (setting [3]) lay in the range of 100 to 1000 nM; in experiment [2] (setting [4]), 0.3 to 3 µM.
With `O=C(N[C@H]1CC2(CC[C@H]3CC[C@@H](C(=O)N4CC(C(=O)N5CCOCC5)C4)N3C1=O)CC2)c1cc2cc(C(F)(F)P(=O)(O)O)ccc2s1` [Compound 115, (difluoro(2-(((3′S,6′S, 10a′S)-3′-(3-(morpholine-4-carbonyl)azetidine-1-carbonyl)-5′-oxooctahydro-5′H-spiro [cyclopropane-1,8′-pyrrolo[1,2-a]azocin]-6′-yl)carbamoyl)benzo[b]thiophen-5-yl)methyl) phosphonic acid], the IC50 in experiment [1] (setting [5]) was < 100 nM; in experiment [2] (setting [6]) it was 3 to 30 µM.
For `CC[C@H]1CC[C@H](NC(=O)c2cc3cc([C@H](F)P(=O)(O)O)ccc3s2)C(=O)N2[C@H](CC[C@H]2C(=O)N2CC(c3cnccc3N3CCC3)C2)C1` [Compound 938, ((R)-(2-(((3S,6S,9S,10aR)-3-(3-(4-(azetidin-1-yl)pyridin-3-yl)azetidine-1-carbonyl)-9-ethyl-5-oxodecahydropyrrolo [1,2-a]azocin-6-yl)carbamoyl)benzo [b]thiophen-5-yl)fluoromethyl) phosphonic acid], the results for the IC50 in experiment [1] (setting [3]) and in experiment [2] (setting [4]) were < 100 nM and 0.3 to 3 µM, respectively.
On the same counts, the results for `O=C(N[C@H]1CCCC[C@H]2CC[C@@H](C(=O)N3CC(c4cccnc4)CC34CC4)N2C1=O)c1ccc2ccc(C(F)P(=O)(O)O)cc2c1` (stereo partly drawn) [Compound 891, (fluoro(7-(((3S,6S,10aS)-5-oxo-3-(6-(pyridin-3-yl)-4-azaspiro[2.4]heptane-4-carbonyl)decahydropyrrolo[1,2-a]azocin-6-yl)carbamoyl)naphthalen-2-yl)methyl) phosphonic acid] are 1000 to 10000 nM and ≤ 0.3 µM.
On the same counts, the results for `O=C(N[C@H]1CCC[C@H]2CC[C@@H](C(=O)N3CC(c4cnccn4)C3)N2C1=O)c1cc2cc(C(F)(F)P(=O)(O)O)ccc2s1` [Compound 797, (difluoro(2-(((3S,6S,9aS)-5-oxo-3-(3-(pyrazin-2-yl)azetidine-1-carbonyl)octahydro-1H-pyrrolo[1,2-a]azepin-6-yl)carbamoyl)benzo [b]thiophen-5-yl)methyl) phosphonic acid] are 100 to 1000 nM and 3 to 30 µM.
The matching figures for `O=C(N[C@H]1CCCC[C@H]2CC[C@@H](C(=O)NCc3ccn4ccnc4c3)N2C1=O)c1cc2cc(C(F)(F)P(=O)(O)O)ccc2s1` [Compound 828]: < 100 nM and 0.3 to 3 µM.
Consider `N#C[C@@H]1CN(C(=O)[C@@H]2CCC[C@@H]3CCCC[C@H](NC(=O)c4cc5cc(C(F)(F)P(=O)(O)O)ccc5s4)C(=O)N32)CC1c1ccccc1` (mixture of isomers) [Compound 63, ((2-(((4S,7S,11aS)-4-(rel-(trans)-3-cyano-4-phenylpyrrolidine-1-carbonyl)-6-oxodecahydro-2H-pyrido[1,2-a]azocin-7-yl)carbamoyl)benzo[b]thiophen-5-yl)difluoromethyl) phosphonic acid], for which the IC50 in experiment [1] (setting [5]) is 100 to 1000 nM; in experiment [2] (setting [6]), ≤ 0.3 µM.
In the case of `O=C(N[C@H]1CCC[C@H]2CC[C@@H](C(=O)N3CC(c4ccnc(N5CCOCC5)c4)C3)N2C1=O)c1cc2cc([C@@H](F)P(=O)(O)O)ccc2s1` (single isomer, unassigned) [Compound 712], the IC50 lay in the range of 1000 to 10000 nM in experiment [1] (setting [3]) and 3 to 30 µM in experiment [2] (setting [4]).
Consider `O=C(N[C@H]1CCC[C@H]2CC[C@@H](C(=O)N3CCC(c4ccncn4)CC3)N2C1=O)c1cc2cc(C(F)P(=O)(O)O)ccc2s1` (stereo partly drawn) [Compound 604, (fluoro(2-(((3S,6S,9aS)-5-oxo-3-(4-(pyrimidin-4-yl)piperidine-1-carbonyl)octahydro-1H-pyrrolo[1,2-a]azepin-6-yl)carbamoyl)benzo [b]thiophen-5-yl)methyl) phosphonic acid], for which the IC50 was 100 to 1000 nM in experiment [1] (setting [3]) and 3 to 30 µM in experiment [2] (setting [4]).
As to `Cn1cc(C2CN(C(=O)[C@@H]3CC[C@@H]4CCC[C@H](NC(=O)c5cc6cc(C(F)P(=O)(O)O)ccc6s5)C(=O)N43)C2)c(C#N)n1` (stereo partly drawn) [Compound 734, ((2-(((3S,6S,9aS)-3-(3-(3-cyano-1-methyl-1H-pyrazol-4-yl)azetidine-1-carbonyl)-5-oxooctahydro-1H-pyrrolo[1,2-a]azepin-6-yl)carbamoyl)benzo [b]thiophen-5-yl)fluoromethyl) phosphonic acid], the IC50 lay within 100 to 1000 nM in experiment [1] (setting [3]) and 0.3 to 3 µM in experiment [2] (setting [4]).
